In US7452908B2, “Amide derivatives” (Banyu Pharmaceutical Co., Ltd., priority 1999, dated 2008):
Numbering of substitutions follows the chain as printed.

Assays:
[1] = target: T1, M1 receptor (Rattus norvegicus, UniProt P08482); assay: Antagonism to M1 receptor in vivo: McNeil-A-343-induced vasopressor reaction in cervical vertebrae-separated rats; conditions: iv, McNeil-A-343 (0.3 mg/kg) 5 minutes after test compound
T1 construct: from tissue; host or cells: whole animal, male SD rats (in vivo)
T1 sequence (P08482 1-460): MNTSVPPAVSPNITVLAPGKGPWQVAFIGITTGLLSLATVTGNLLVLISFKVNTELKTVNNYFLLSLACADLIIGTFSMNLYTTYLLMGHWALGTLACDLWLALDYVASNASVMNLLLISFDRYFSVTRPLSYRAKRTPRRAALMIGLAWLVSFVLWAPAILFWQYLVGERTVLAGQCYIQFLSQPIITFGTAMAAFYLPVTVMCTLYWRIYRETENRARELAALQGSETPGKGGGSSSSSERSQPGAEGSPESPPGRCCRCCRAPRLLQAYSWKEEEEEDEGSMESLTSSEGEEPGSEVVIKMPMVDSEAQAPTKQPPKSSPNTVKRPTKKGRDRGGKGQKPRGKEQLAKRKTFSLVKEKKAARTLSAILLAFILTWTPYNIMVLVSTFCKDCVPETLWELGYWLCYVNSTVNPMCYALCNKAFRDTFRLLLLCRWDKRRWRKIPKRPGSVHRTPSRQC
Experimental: Male SD strain rats (weighing 300-500 g) were anesthetized with intraperitoneal administration of pentobarbital (50 mg/kg). Each rat's airway was cannulated by laryngotomy. Also by femoral incision, femoral artery and vein were isolated each and cannulated, which were used as routes for heart rate counting and chemical administration, respectively. Using a pulmotor for small animals (Type 7025, Ugo Basile Co.), artificial respiration was conducted under the conditions of ventilation rate of 6 ml/kg per breath and respiration rate of 90 breaths/min. The heart rate and blood pressure variations were measured with a heart rate counter (AT-601 G, Nippon Koden Co.) and a tonometer (AP-641G, Nippon Koden Co.), via a pressure transducer (DX-312, Nippon Koden Co.). After the blood pressure was stabilized, the cervical vertebrae was separated with an injection needle pricked from the occipital region. […] Five (5) minutes thereafter, McNeil-A-343 (0.3 mg/kg) was intravenously administered, and whereby induced hypertension variation was recorded. In this experiment one-dose evaluation per one animal was conducted. The inhibitory effect (inhibition ratio) of the test compound on the McNeil-A-343-induced vasopressor reaction was determined by the following equation: […]

[2] = target: T2, M2 receptor in isolated rat right atrium (Rattus norvegicus, UniProt P10980); assay: Antagonism to M2 receptor in isolated rat right atrium (carbachol-induced decrease in heart rate); format: cell-based; conditions: shift of carbachol dose-response curve
T2 construct: from tissue; host or cells: right atrium of male SD rats
T2 sequence (P10980 1-466): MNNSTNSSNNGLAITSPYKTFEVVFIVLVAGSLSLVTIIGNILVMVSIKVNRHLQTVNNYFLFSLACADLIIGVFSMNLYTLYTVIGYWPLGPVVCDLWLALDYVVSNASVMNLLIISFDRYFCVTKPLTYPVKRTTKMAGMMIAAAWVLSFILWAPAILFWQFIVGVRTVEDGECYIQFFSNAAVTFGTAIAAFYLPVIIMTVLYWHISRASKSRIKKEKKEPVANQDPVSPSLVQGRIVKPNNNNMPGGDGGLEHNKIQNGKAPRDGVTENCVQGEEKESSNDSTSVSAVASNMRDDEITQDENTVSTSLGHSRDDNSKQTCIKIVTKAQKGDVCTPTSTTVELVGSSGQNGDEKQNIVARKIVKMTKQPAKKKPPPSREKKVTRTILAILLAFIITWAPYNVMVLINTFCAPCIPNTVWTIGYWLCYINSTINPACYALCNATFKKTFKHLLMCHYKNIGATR
Experimental: The test was performed according to a conventional method. Male SD strain rats (weighing 300-500 g) were killed by exsanguination, and from each of them the right atrium was isolated. Each preparation was isometrically suspended in a Magnus tube filled with 20 ml of Krebs-Henseleit solution (gassed with 95% O2-5% CO2 and kept at 32° C.) with an initial tension of 0.5 g. The heart rate was recorded with a heart rate counter. After the preparation was equilibrated for 30 minutes, carbachol (10^−9 to 10^−6 M) was cumulatively administered from a low concentration to three-fold increasing doses and accompanying decrease in heart rate was measured to obtain a dose-responsecurve for the control experiment. Afterthe preparation was washed with fresh solution to restore the heart rate, a test compound was administered thereto. Ten minutes later, carbachol was cumulatively administered again. Responses to carbachol were expressed as percentages based on the heart rate before administration of carbachol as 100%. The antagonistic potency (KB value) of the test compound was determined from the degree of shift of the dose-responsecurve attributable to the treatment with individual test compound of the present invention. The results were as shown in Tables 2-1 and 2-2. • 2) Test for Antagonism to the Airway M3 Receptor in Isolated Rat Trachea

[3] = target: T3, human m1 muscarinic acetylcholine receptor expressed in CHO cells (Homo sapiens, UniProt P11229); assay: Inhibition of [3H]-N-methylscopolamine binding to muscarinic m1 receptor; conditions: 0.2 nM [3H]-N-methylscopolamine
T3 construct: purchased Receptor Biology, Inc; host or cells: CHO cells
T3 sequence (P11229 1-460): T1 sequence (P08482 1-460) with V5A, S254T, S309P, K320R, G337A, V413I
Experimental: These tests were performed according to a modification of the method of Hargreaves, et al. (Br. J. Pharmacol. 107: 494-501, 1992). Namely, muscarinic acetylcholine receptors of human m1, m2, m3, m4 and m5 expressed in CHO cells (Receptor Biology, Inc.) were incubated with 0.2 nM [^3H]-N-methylscopolamine (82Ci/mmol, New England Nuclear, Inc.) and a test compound to be tested in 0.5 ml of 50 mM Tris-HCl, 10 mM MgCl2, 1 mM EDTA solution (pH 7.4) for 120 minutes at room temperature (about 20-25° C.), followed by suction filtration over a glass filter (UniFilter plate-GF/C; Packard). Then the filter was washed four times with 1 ml of ice-cold Tris-HCl buffer and dried at 50° C. for an hour. After adding a scintillator (Microscinti 0; Packard), the radioactivity of [^3H]-N-methylscopolamine binding to the filter was counted with a microplate scintillation counter (TopCount™; Packard). Non-specific receptor binding of [^3H]-N-methylscopolamine was measured by adding 1 μM N-methylscopolamine.

ED50 [1] | Ki [3] | SMILES | Kb [2]
> 3 mg/kg | 140 nM | O=C(CCNC(=O)CNC(=O)CC(c1ccccc1)(c1ccccc1)c1ccccc1)NC[C@H]1CCCN(CC2CCCCC2)C1 [Example 12, N-{2-(3-{((3R)-1-cyclohexylmethyl-3-piperidyl)methyl}amino-3-oxopropyl)amino-2-oxoethyl}-3,3,3-triphenyloropanamide] | 160 nM
> 0.3 mg/kg | > 2500 nM | CC[N+]1(CC)CCC[C@H](CNC(=O)[C@H]2CCCN2C(=O)[C@@H]2C[C@@H](O)CN2C(=O)CC(c2ccccc2)(c2ccccc2)c2ccccc2)C1.[Cl-] [Example 133, (3R)-1,1-diethyl-3-({({(2R)-1-({(2S,4R)-4-hydroxy-1-(3,3,3-triphenylpropanoyl)-2-pyrrolidinyl}carbonyl)-2-pyrrolidinyl}carbonyl)amino}methyl)piperidinium chloride] | 41 nM
